These results are taken from PubChem BioAssay AID743102 (Vanderbilt Specialized Chemistry Center, 2013).

The source made the active and inactive calls.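 Rule for the calls: active = human M5 calcium response above 60% of the acetylcholine maximum, marking a potentiator (some results past the limit were not filed as active); inactive = the rest.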

Sequence of Muscarinic acetylcholine receptor M5 (Homo sapiens) (P08912 whole entry, looked up): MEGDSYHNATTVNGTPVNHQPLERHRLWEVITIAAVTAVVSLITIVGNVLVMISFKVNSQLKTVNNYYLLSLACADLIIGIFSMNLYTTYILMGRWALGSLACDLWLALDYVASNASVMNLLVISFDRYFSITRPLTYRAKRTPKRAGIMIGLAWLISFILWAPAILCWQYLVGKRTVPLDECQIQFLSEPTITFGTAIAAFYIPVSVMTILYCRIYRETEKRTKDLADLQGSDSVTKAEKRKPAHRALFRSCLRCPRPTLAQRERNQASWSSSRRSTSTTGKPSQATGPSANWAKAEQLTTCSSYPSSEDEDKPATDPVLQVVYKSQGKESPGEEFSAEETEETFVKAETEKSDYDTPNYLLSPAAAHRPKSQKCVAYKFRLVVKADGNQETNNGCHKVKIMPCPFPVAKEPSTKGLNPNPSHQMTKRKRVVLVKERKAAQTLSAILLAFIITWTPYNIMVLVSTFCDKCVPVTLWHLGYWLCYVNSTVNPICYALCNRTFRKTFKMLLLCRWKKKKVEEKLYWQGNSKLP

One assay concerns the target Muscarinic acetylcholine receptor M5 (Homo sapiens) (UniProt P08912). Put plainly: M5 positive allosteric modulator potency, confirmation, cell-based, CHO-K1 hM5, Fluo-4 calcium flux, concentration-response (AID 743102). As to conditions: ACh EC20 PAM. On the technique in general: Calcium assays in cells follow changes in intracellular calcium, usually with a dye or a luminescent sensor.
`CCN(C(=O)C1CCN(S(=O)(=O)c2ccc3cn[nH]c3c2)CC1)[C@H](C)c1ccccc1`: the EC50 (usually the midpoint of the concentration-response curve) was 830 nM.

On to `CCN(Cc1ccccc1)C(=O)C1CCN(S(=O)(=O)c2ccc3nsnc3c2)CC1`, for which the EC50 was 5230 nM.

Consider `CCN(C(=O)C1CCN(S(=O)(=O)c2ccc3[nH]ncc3c2)CC1)[C@H](C)c1ccccc1C(F)(F)F`, for which the EC50 was 4060 nM.

For the molecule `CCN(Cc1ccccc1)C(=O)C1CCN(S(=O)(=O)c2ccc(OC(F)(F)F)cc2)CC1`, the EC50 is 6100 nM.

For the molecule `CCCc1ccc(S(=O)(=O)N2CCC(C(=O)N(CC)Cc3ccccc3)CC2)cc1`, the EC50 is 3230 nM.

On to `CCN(Cc1cccc(C)c1)C(=O)C1CCN(S(=O)(=O)c2ccc3cn[nH]c3c2)CC1`, for which the EC50 was 1000 nM.

With `CCN(Cc1ccccc1)C(=O)C1CCN(S(=O)(=O)c2ccccc2)CC1`, the EC50 was 5370 nM.

In the case of `CCN(Cc1ccccc1C#N)C(=O)C1CCN(S(=O)(=O)c2ccc3cn[nH]c3c2)CC1`, the EC50 was 7020 nM.

Consider `[2H]C([2H])(C)N(C(=O)C1CCN(S(=O)(=O)c2ccc3cn[nH]c3c2)CC1)[C@H](C)c1ccccc1`, for which the EC50 is 530 nM.

Take `CCN(Cc1ccccc1)C(=O)C1CCN(S(=O)(=O)c2ccc3[nH]ncc3c2)CC1`: the EC50 was 1660 nM.

As for `CCN(Cc1ccccc1)C(=O)C1CCN(S(=O)(=O)c2ccc(Br)cc2)CC1`, the EC50 was 3920 nM.

For the molecule `CCN(Cc1ccccc1C(F)(F)F)C(=O)C1(F)CCN(S(=O)(=O)c2ccc3[nH]ncc3c2)CC1`, the concentration for a half-maximal effect (EC50) was 430 nM.

As to `CCN(Cc1ccccc1)C(=O)C1CCN(S(=O)(=O)c2ccc(OC)cc2)CC1`, the EC50 is 3570 nM.

`CCc1ccc(S(=O)(=O)N2CCC(C(=O)N(CC)Cc3ccccc3)CC2)cc1`: the half-maximal effective concentration (EC50) was 3750 nM.

In the case of `CCN(Cc1ccccc1)C(=O)C1CCN(S(=O)(=O)c2cccc(Cl)c2)CC1`, the half-maximal effective concentration (EC50) was 4810 nM.

As for `CCN(Cc1ccccc1)C(=O)C1CCN(S(=O)(=O)c2ccc3c(c2)OCCO3)CC1`, the EC50 was 12300 nM.

For the molecule `CCN(Cc1cccc(Cl)c1)C(=O)C1CCN(S(=O)(=O)c2ccc3cn[nH]c3c2)CC1`, the EC50 is 1670 nM.

Consider `CCN(Cc1ccccc1F)C(=O)C1CCN(S(=O)(=O)c2ccc3cn[nH]c3c2)CC1`, for which the EC50 is 2080 nM.

In the case of `CCN(Cc1ccccc1C(F)(F)F)C(=O)C1CCN(S(=O)(=O)c2ccc3[nH]ncc3c2)CC1`, the EC50 is 230 nM.

For the molecule `CCN(C(=O)C1CCN(S(=O)(=O)c2ccc3[nH]ncc3c2)CC1)[C@H](C)c1ccccc1`, the half-maximal effective concentration (EC50) is 770 nM.

For the molecule `CCN(Cc1ccccc1)C(=O)C1CCN(S(=O)(=O)c2ccc(OC(F)F)cc2)CC1`, the EC50 was 5050 nM.

For `CCN(Cc1ccccc1)C(=O)C1CCN(S(=O)(=O)c2ccc3cn[nH]c3c2)CC1`, the EC50 was 2090 nM.

With `CCN(Cc1ccccc1)C(=O)C1CCN(S(=O)(=O)c2cccc(OC)c2)CC1`, the EC50 is 3250 nM.

As for `CCN(Cc1ccccc1C(F)(F)F)C(=O)C1CCN(S(=O)(=O)c2ccc(-n3cccn3)cc2)CC1`, the EC50 is 1260 nM.

As for `CCN(C(=O)C1CCN(S(=O)(=O)c2cc(F)c(F)c(F)c2)CC1)[C@H](C)c1ccccc1`, the EC50 was 2540 nM.

`CCN(Cc1ccccc1Cl)C(=O)C1CCN(S(=O)(=O)c2ccc3cn[nH]c3c2)CC1`: the EC50 was 430 nM.

In the case of `C=CCN(Cc1ccccc1C(F)(F)F)C(=O)C1CCN(S(=O)(=O)c2ccc3[nH]ncc3c2)CC1`, the EC50 is 1860 nM.

On to `CCN(Cc1ccccc1C(F)(F)F)C(=O)C1CCN(S(=O)(=O)c2ccc3cn[nH]c3c2)CC1`, for which the EC50 was 420 nM.

Take `CCN(C(=O)C1CCN(S(=O)(=O)c2ccc3c(c2)CCO3)CC1)[C@H](C)c1ccccc1`: the EC50 was 980 nM.

In the case of `CCN(Cc1ccccc1C)C(=O)C1CCN(S(=O)(=O)c2ccc3cn[nH]c3c2)CC1`, the EC50 is 940 nM.

Consider `CCN(C(=O)C1CCN(S(=O)(=O)c2ccc3c(c2)CCC3)CC1)[C@H](C)c1ccccc1`, for which the EC50 was 760 nM.

Consider `CCN(C(=O)C1CCN(S(=O)(=O)c2ccc(OC)cc2)CC1)[C@H](C)c1ccccc1`, for which the EC50 was 1080 nM.

`CCN(C(=O)C1CCN(S(=O)(=O)c2ccc3occc3c2)CC1)[C@H](C)c1ccccc1`: the EC50 is 920 nM.

Turning to `CCN(Cc1cccc(OC)c1)C(=O)C1CCN(S(=O)(=O)c2ccc3cn[nH]c3c2)CC1`, the EC50 was 2690 nM.

As for `CCCN(Cc1ccccc1C(F)(F)F)C(=O)C1CCN(S(=O)(=O)c2ccc3[nH]ncc3c2)CC1`, the EC50 is 160 nM.

With `CCN(Cc1ccccc1)C(=O)C1CCN(S(=O)(=O)c2ccc(C)s2)CC1`, the EC50 was 7480 nM.

Take `CCN(Cc1ccccc1OC)C(=O)C1CCN(S(=O)(=O)c2ccc3cn[nH]c3c2)CC1`: the concentration giving a half-maximal response (EC50) is 7090 nM.

For `CCN(Cc1ccccc1)C(=O)C1CCN(S(=O)(=O)c2ccc(C)cc2)CC1`, the EC50 is 5450 nM.

Take `CCN(Cc1cccc(F)c1)C(=O)C1CCN(S(=O)(=O)c2ccc3cn[nH]c3c2)CC1`: the EC50 is 1270 nM.

In the case of `CCN(Cc1ccccc1)C(=O)C1CCN(S(=O)(=O)c2ccc3occc3c2)CC1`, the EC50 is 1400 nM.

As for `O=C(C1CCN(S(=O)(=O)c2ccc3[nH]ncc3c2)CC1)N(CCF)Cc1ccccc1C(F)(F)F`, the concentration for a half-maximal effect (EC50) is 1320 nM.

As to `CCN(Cc1ccccc1Cl)C(=O)C1CCN(S(=O)(=O)c2ccc3[nH]ncc3c2)CC1`, the EC50 was 340 nM.

In the case of `CCN(Cc1ccccc1)C(=O)C1CCN(S(=O)(=O)c2cccc(OC(F)F)c2)CC1`, the EC50 was 3980 nM.

Consider `CCN(C(=O)C1CCN(S(=O)(=O)c2ccc(-n3cccn3)cc2)CC1)[C@H](C)c1ccccc1`, for which the EC50 was 700 nM.

Turning to `CCN(Cc1ccccc1OC(F)(F)F)C(=O)C1CCN(S(=O)(=O)c2ccc3cn[nH]c3c2)CC1`, the EC50 was 3430 nM.

`CCN(Cc1ccccc1)C(=O)C1CCN(S(=O)(=O)c2ccc(C(C)=O)cc2)CC1`: the EC50 was 6550 nM.

The same assay, now with this note: ACh EC20 PAM, at 30 µM (top of the series).
On to `CCN(C(=O)C1CCN(S(=O)(=O)c2ccc(OC)cc2)CC1)[C@@H](C)c1ccccc1`, for which the “% ACh max response” value is “inactive”.

With `O=C1N(Cc2ccccc2)CCC12CCN(S(=O)(=O)c1ccc3c(c1)OCCO3)CC2`, the “% ACh max response” value was “inactive”.

As to `O=C(C1CCN(S(=O)(=O)c2ccc3[nH]ncc3c2)CC1)N(Cc1ccccc1C(F)(F)F)C1CC1`, the “% ACh max response” value was “inactive”.

For `COc1ccc(S(=O)(=O)N2CCC(C(=O)NCc3ccccc3)CC2)cc1`, the “% ACh max response” value is “inactive”.

Take `CCN(Cc1ccccc1)C(=O)[C@H]1CCCN(S(=O)(=O)c2ccc(OC)cc2)C1`: the “% ACh max response” value was “inactive”.

Turning to `CCN(Cc1ccccc1)C(=O)C1CCN(S(=O)(=O)C2CC2)CC1`, the “% ACh max response” value is “inactive”.

Consider `CCN(C(=O)C1CCN(S(=O)(=O)c2ccc3occc3c2)CC1)[C@H](C)c1ccccc1C(F)(F)F`, for which the “% ACh max response” value is “inactive”.

Consider `O=C(C1CCN(S(=O)(=O)c2ccc3c(c2)OCCO3)CC1)N1CCc2ccccc2C1`, for which the “% ACh max response” value was “inactive”.

`C[C@@H](NC(=O)C1CCN(S(=O)(=O)c2ccc3[nH]ncc3c2)CC1)c1ccccc1`: the “% ACh max response” value was “inactive”.

Consider `CCN(Cc1ccccc1)C(=O)[C@@H]1CCCN(S(=O)(=O)c2ccc(OC)cc2)C1`, for which the “% ACh max response” value was “inactive”.

In the case of `CCN(C(=O)Cc1ccccc1)C1CCN(S(=O)(=O)c2ccc(OC)cc2)CC1`, the “% ACh max response” value was “inactive”.

Take `CCN(Cc1ccccc1C(F)(F)F)C(=O)C1CN(S(=O)(=O)c2ccc3[nH]ncc3c2)C1`: the “% ACh max response” value is “inactive”.

Regarding `O=C(C1CCN(S(=O)(=O)c2ccc3cn[nH]c3c2)CC1)N(Cc1ccccc1C(F)(F)F)C1CC1`, the “% ACh max response” value is “inactive”.

As to `O=C(NCc1ccccc1)C1CCN(S(=O)(=O)c2ccc3c(c2)OCCO3)CC1`, the “% ACh max response” value is “inactive”.

Regarding `CN(C)C(=O)C1(Cc2ccccc2)CCN(S(=O)(=O)c2ccc3occc3c2)CC1`, the “% ACh max response” value was “inactive”.

`CCN(Cc1ccccc1)C(=O)C1CCN(S(C)(=O)=O)CC1`: the “% ACh max response” value is “inactive”.

As to `CCN(Cc1ccccc1C(F)(F)F)C(=O)C1C2CN(S(=O)(=O)c3ccc4[nH]ncc4c3)CC21` (centres undefined), the “% ACh max response” value was “inactive”.

In the case of `COc1ccc(S(=O)(=O)N2CCC3(CCN(Cc4ccccc4)C3=O)CC2)cc1`, the “% ACh max response” value is “inactive”.

Consider `CCN(C(=O)Cc1ccccc1)C1CCN(S(=O)(=O)c2ccc3c(c2)OCCO3)CC1`, for which the “% ACh max response” value was “inactive”.

Staying with this assay, now noted: ACh EC20 PAM, active compounds read high.
Turning to `CCN(Cc1ccccc1)C(=O)C1CCN(S(=O)(=O)c2ccc3ncccc3c2)CC1`, the “% ACh max” value is “inactive”.

`CCN(Cc1ccc(OC)cc1)C(=O)C1CCN(S(=O)(=O)c2ccc3cn[nH]c3c2)CC1`: the “% ACh max” value is “inactive”.

In the case of `CCN(Cc1ccccc1)C(=O)C1CCN(S(=O)(=O)c2cccc3c2OCCO3)CC1`, the “% ACh max” value is “inactive”.

Regarding `CCN(Cc1ccccc1)C(=O)C1CCN(S(=O)(=O)c2ccc(C(F)(F)F)cc2)CC1`, the “% ACh max” value was “inactive”.

Take `CCN(Cc1cccc(C(F)(F)F)c1)C(=O)C1CCN(S(=O)(=O)c2ccc3cn[nH]c3c2)CC1`: the “% ACh max” value was “inactive”.

`CCN(Cc1ccccc1)C(=O)C1CCN(S(=O)(=O)c2ccc(OC)c(OC)c2)CC1`: the “% ACh max” value is “inactive”.

`CCN(Cc1ccccc1)C(=O)C1CCN(S(=O)(=O)c2ccc(N3CCOCC3)nc2)CC1`: the “% ACh max” value was “inactive”.

On to `CC(C)N(Cc1ccccc1C(F)(F)F)C(=O)C1CCN(S(=O)(=O)c2ccc3[nH]ncc3c2)CC1`, for which the “% ACh max” value was “inactive”.

`O=C(C1CCN(S(=O)(=O)c2ccc3[nH]ncc3c2)CC1)N(CCO)Cc1ccccc1C(F)(F)F`: the “% ACh max” value is “inactive”.

Consider `COc1ccc(S(=O)(=O)N2CCC(C(=O)N(C)Cc3ccccc3)CC2)cc1`, for which the “% ACh max” value is “inactive”.

Take `CCN(Cc1ccccc1)C(=O)C1CCN(S(=O)(=O)c2cccc(C(F)(F)F)c2)CC1`: the “% ACh max” value was “inactive”.

Turning to `CCN(C(=O)C1CCN(S(=O)(=O)c2ccc3cn[nH]c3c2)CC1)C(C)c1ccccn1` (centres undefined), the “% ACh max” value was “inactive”.

`CCN(Cc1ccccn1)C(=O)C1CCN(S(=O)(=O)c2ccc3cn[nH]c3c2)CC1`: the “% ACh max” value is “inactive”.

In the case of `CCN(Cc1cccc(C#N)c1)C(=O)C1CCN(S(=O)(=O)c2ccc3cn[nH]c3c2)CC1`, the “% ACh max” value was “inactive”.
